Test results published in patent US20250032623A1, “HETEROBIFUNCTIONAL COMPOUNDS AND THEIR USE IN TREATING DISEASE” (HALDA THERAPEUTICS OPCO, INC., priority 2021, published 2025).
pIC50, pKd: −log10 of the molar value.

How the values were obtained:
EGFR = molecular target: T1, EGFR (Homo sapiens, UniProt P00533); assay: KdELECT binding assay, EGFR
T1 construct: purchased
In short: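 Competition binding: DNA- or T7 phage-tagged EGFR was incubated 1 h at room temperature with immobilized ligand beads and an 11-point 3-fold compound series (0.9% DMSO final). Bead-bound kinase was eluted and quantified by qPCR to derive Kd.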

[1] = molecular target: T2, full-length CDK9 (amino acids 1-372; Accession Number NP_001252.1) (Homo sapiens, UniProt P50750); assay: KdELECT binding assay, CDK9
T2 construct: full-length CDK9 (amino acids 1-372); purchased; host or cells: bacteria (E. coli, BL21-derived, T7 phage)
T2 sequence (P50750 whole entry, the tested form may be a part): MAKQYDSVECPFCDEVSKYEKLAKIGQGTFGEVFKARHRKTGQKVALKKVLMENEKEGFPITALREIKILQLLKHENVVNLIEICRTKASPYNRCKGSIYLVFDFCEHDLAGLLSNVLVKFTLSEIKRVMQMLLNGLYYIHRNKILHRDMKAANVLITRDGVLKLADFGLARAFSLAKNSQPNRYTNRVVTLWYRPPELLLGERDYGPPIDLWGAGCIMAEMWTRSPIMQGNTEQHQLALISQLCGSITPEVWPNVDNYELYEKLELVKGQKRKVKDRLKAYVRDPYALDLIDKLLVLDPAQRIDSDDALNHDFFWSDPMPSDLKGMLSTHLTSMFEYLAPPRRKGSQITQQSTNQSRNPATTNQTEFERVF
Procedure: Exemplary compounds were tested for ability to bind to full-length CDK9 (amino acids 1-372; Accession Number NP_001252.1) expressed from bacteria. Compounds were tested using a KdELECT assay.
Kinase-tagged T7 phage strains were prepared in an E. coli host derived from the BL21 strain. E. coli were grown to log-phase and infected with T7 phage and incubated with shaking at 32° C. until lysis. The lysates were centrifuged and filtered to remove cell debris. The remaining kinases were produced in HEK-293 cells and subsequently tagged with DNA for qPCR detection. Streptavidin-coated magnetic beads were treated with biotinylated small molecule ligands for 30 minutes at room temperature to generate affinity resins for kinase assays. The liganded beads were blocked with excess biotin and washed with blocking buffer (SeaBlock (Pierce), 1% BSA, 0.05% Tween 20, 1 mM DTT) to remove unbound ligand and to reduce non-specific binding. Binding reactions were assembled by combining kinases, liganded affinity beads, and test compounds in 1× binding buffer (20% SeaBlock, 0.17×PBS, 0.05% Tween 20, 6 mM DTT). Test compounds were prepared as 111× stocks in 100% DMSO. Kd values were determined using an 11-point 3-fold compound dilution series with three DMSO control points. All compounds for Kd measurements are distributed by acoustic transfer (non-contact dispensing) in 100% DMSO. The compounds were then diluted directly into the assays such that the final concentration of DMSO was 0.9%. All reactions performed in polypropylene 384-well plate. Each was a final volume of 0.02 mL. The assay plates were incubated at room temperature with shaking for 1 hour and the affinity beads were washed with wash buffer (1×PBS, 0.05% Tween 20). The beads were then re-suspended in elution buffer (1×PBS, 0.05% Tween 20, 0.5 μM nonbiotinylated affinity ligand) and incubated at room temperature with shaking for 30 minutes. The kinase concentration in the eluates was measured by qPCR.

[2] = molecular target: T3, EGFR WT (amino acids 669-1011, Accession Number NP_005219.2) (Homo sapiens, UniProt P00533); assay: KdELECT binding assay (Eurofins Discovery), EGFR WT
T3 construct: purchased Eurofins Discovery; host or cells: bacteria (E. coli, BL21-derived, T7 phage)
T3 sequence (P00533 669-1011): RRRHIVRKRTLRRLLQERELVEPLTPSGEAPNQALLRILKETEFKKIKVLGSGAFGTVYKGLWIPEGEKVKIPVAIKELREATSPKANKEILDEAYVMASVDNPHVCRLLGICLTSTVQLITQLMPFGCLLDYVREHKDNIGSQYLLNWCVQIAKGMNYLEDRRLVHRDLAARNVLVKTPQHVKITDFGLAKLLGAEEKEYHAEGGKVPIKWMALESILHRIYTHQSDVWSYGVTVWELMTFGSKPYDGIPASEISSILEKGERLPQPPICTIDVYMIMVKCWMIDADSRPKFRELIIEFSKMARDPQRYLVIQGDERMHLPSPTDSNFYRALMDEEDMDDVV
In short: (§1)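 Competition binding: WT kinase as T7 phage fusion from E. coli, T790M/L858R produced in HEK-293 and DNA-tagged, incubated 1 h at room temperature with immobilized ligand beads and compound (11-point 3-fold series, 0.9% DMSO). Bead-bound kinase eluted and quantified by qPCR to derive Kd.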

[3] = molecular target: T4, EGFR T790M, L858R (amino acids 669-1011 Accession Number NP_005219.2) (Homo sapiens, UniProt P00533, L858R/T790M); assay: KdELECT binding assay (Eurofins Discovery), EGFR T790M, L858R; details: read-out: EGFR DM Kd
T4 construct: purchased Eurofins Discovery; host or cells: mammalian cells (HEK-293)
T4 sequence (P00533 669-1011 T790M/L858R): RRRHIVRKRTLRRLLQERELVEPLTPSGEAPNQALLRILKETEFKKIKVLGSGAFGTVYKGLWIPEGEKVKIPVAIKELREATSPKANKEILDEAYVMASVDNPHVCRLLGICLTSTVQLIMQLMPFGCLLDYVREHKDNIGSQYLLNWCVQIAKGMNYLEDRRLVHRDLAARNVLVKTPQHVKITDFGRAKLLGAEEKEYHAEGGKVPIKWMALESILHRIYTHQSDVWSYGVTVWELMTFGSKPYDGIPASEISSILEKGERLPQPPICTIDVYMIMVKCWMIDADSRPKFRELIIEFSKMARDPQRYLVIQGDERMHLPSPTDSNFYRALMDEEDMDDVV
In short: as §1

HEK293 cells = assay: Cellular growth inhibition assay (CellTiter-Glo), HEK293 cells; type: cell-based; details: Homo sapiens, 72 h, three days compound treatment, CellTiter-Glo 2.0, read-out: CTG HEK293 GI50
In short: (§2)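 GI50 derived by four-parameter regression of luminescence (CellTiter-Glo 2.0) at Day 0 and Day 3, normalized to DMSO wells. Cells (HeLa, HEK293; 500/well, DMEM plus 10% FBS) were dosed with compound dilutions 24 h post-seeding and exposed for three days at 37 °C.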

KRAS G12C = molecular target: T5, KRAS G12C (Homo sapiens, UniProt P01116, G12C); assay: KRAS G12C nucleotide exchange assay (SOS1 mediated, HTRF); type: biochemical; details: 1 hr pre-incubation at RT, read-out: IC50 (inhibition of KRas G12C)
T5 construct: Kras (aa 2-169), GST; purchased Reaction Biology Corporation (RBC)
T5 sequence (P01116 2-169 isoform P01116-2 G12C): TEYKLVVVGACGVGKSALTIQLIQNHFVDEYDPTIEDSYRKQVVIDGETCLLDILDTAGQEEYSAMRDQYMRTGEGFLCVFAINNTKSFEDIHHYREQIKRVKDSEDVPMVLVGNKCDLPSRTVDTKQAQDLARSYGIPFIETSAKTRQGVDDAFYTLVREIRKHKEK
In short: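 HTRF nucleotide exchange using KRAS G12C mixed with anti-GST Tb antibody and pre-incubated with compound for 1 h at RT. Exchange was started with SOS1 plus labelled GTP. Compounds ran as 10-point, 3-fold dilutions from 10 μM, with no-SOS1 or top concentration as blank and IC50 from a variable-slope sigmoidal fit.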

HeLa cells = assay: Cellular growth inhibition assay (CellTiter-Glo), HeLa cells; type: cell-based; details: Homo sapiens, 72 h, three days compound treatment, CellTiter-Glo 2.0, read-out: CTG HELA GI50
In short: as §2

T1 sequence (P00533 25-1210): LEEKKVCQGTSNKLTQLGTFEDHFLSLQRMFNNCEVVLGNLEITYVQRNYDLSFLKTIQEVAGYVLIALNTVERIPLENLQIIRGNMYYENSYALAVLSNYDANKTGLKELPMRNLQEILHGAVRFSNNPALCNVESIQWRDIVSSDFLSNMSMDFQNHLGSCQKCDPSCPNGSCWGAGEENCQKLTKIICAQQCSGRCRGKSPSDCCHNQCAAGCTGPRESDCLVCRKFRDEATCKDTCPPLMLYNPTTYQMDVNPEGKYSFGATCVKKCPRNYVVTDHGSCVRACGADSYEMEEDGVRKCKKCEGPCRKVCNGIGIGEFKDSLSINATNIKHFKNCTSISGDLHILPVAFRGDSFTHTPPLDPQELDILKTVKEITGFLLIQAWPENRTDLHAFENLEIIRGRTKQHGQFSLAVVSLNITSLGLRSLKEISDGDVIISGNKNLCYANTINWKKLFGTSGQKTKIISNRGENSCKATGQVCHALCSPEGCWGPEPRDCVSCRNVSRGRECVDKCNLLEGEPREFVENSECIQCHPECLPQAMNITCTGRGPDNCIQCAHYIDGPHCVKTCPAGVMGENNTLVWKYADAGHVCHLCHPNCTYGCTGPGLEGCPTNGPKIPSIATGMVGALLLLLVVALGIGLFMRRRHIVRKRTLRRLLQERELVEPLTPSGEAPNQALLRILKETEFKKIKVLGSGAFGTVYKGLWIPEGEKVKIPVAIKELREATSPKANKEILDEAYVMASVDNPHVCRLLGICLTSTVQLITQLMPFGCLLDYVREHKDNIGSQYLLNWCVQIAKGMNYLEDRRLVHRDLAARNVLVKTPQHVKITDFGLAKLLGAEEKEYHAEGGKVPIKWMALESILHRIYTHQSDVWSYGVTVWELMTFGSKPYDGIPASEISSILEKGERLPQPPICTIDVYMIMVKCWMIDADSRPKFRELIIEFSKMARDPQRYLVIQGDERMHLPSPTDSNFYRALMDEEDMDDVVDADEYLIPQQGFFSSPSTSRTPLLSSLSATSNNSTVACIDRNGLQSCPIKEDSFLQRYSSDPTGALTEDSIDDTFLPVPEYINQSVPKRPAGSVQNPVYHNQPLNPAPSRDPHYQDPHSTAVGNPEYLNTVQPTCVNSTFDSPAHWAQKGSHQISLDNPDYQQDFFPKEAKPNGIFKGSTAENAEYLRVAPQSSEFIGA

Row | SMILES | pKd (EGFR) | pKd [1] | pKd [2] | pKd [3] | GI50 (HEK293 cells) [nM] | pIC50 (KRAS G12C) | GI50 (HeLa cells) [nM]
1 | C=CC(=O)Nc1cc(Nc2nccc(-c3cn(C)c4ccccc34)n2)c(OC)cc1N(C)CCN(C)CCOCCOCCNS(=O)(=O)c1ccc(Nc2ncc(Br)c(Nc3cccc(F)c3C(N)=O)n2)cc1 [Compound I-33, 2-[[5-bromo-2-[4-[2-[2-[2-[2-[5-methoxy-N-methyl-4-[[4-(1-methylindol-3-yl)pyrimidin-2-yl]amino]-2-(prop-2-enoylamino)anilino]ethyl-methyl-amino]ethoxy]ethoxy]ethyl-sulfamoyl]anilino]pyrimidin-4-yl]amino]-6-fluoro-benzamide] | > 7.30 | 5.60 to 6.30 | 6.30 to 7.30 | > 7.30 | – | – | –
2 | CCc1cnn2c(NCc3ccc(OCCOCCOCCOCCOCCOC/C=C/C(=O)N4CCN(c5nc(OC[C@@H]6CCCN6C)nc6c5CCN(c5cccc7cccc(Cl)c57)C6)C[C@@H]4CC#N)nc3)cc(N3CCCCC3CCO)nc12 (stereo partly drawn) [Compound I-86, 2-[(2S)-4-[7-(8-chloro-1-naphthyl)-2-[[(2S)-1-methylpyrrolidin-2-yl]methoxy]-6,8-dihydro-5H-pyrido[3,4-d]pyrimidin-4-yl]-1-[(E)-4-[2-[2-[2-[2-[2-[[5-[[[3-ethyl-5-[2-(2-hydroxyethyl)-1-piperidyl]pyrazolo[1,5-a]pyrimidin-7-yl]amino]methyl]-2-pyridyl]oxy]ethoxy]ethoxy]ethoxy]ethoxy]ethoxy]but-2-enoyl]piperazin-2-yl]acetonitrile] | – | > 7.30 | – | – | 500 to 1500 | 6.00 to 7.00 | < 500
3 | CCc1cnn2c(NCc3ccc(OCCOCCOCCOC4CCN(C/C=C/C(=O)N5CCN(c6nc(OC[C@@H]7CCCN7C)nc7c6CCN(c6cccc8cccc(Cl)c68)C7)C[C@@H]5CC#N)CC4)nc3)cc(N3CCCC[C@H]3CCO)nc12 [Compound I-90, 2-((S)-4-(7-(8-chloronaphthalen-1-yl)-2-(((S)-1-methylpyrrolidin-2-yl)methoxy)-5,6,7,8-tetrahydropyrido [3,4-d]pyrimidin-4-yl)-1-((E)-4-(4-(2-(2-(2-((5-(((3-ethyl-5-((S)-2-(2-hydroxyethyl)piperidin-1-yl)pyrazolo[1,5-a]pyrimidin-7-yl)amino)methyl)pyridin-2-yl)oxy)ethoxy)ethoxy)ethoxy)piperidin-1-yl)but-2-enoyl)piperazin-2-yl)acetonitrile] | – | > 7.30 | – | – | < 500 | > 7.00 | < 500
4 | CCc1cnn2c(NCc3ccc(OCCOCCOCCOCCOCCN(C)C/C=C/C(=O)N4CCN(c5nc(OC[C@@H]6CCCN6C)nc6c5CCN(c5cccc7cccc(Cl)c57)C6)C[C@@H]4CC#N)nc3)cc(N3CCCC[C@H]3CCO)nc12 [Compound I-92, 2-((S)-4-(7-(8-chloronaphthalen-1-yl)-2-(((S)-1-methylpyrrolidin-2-yl)methoxy)-5,6,7,8-tetrahydropyrido [3,4-d]pyrimidin-4-yl)-1-((E)-1-((5-(((3-ethyl-5-((S)-2-(2-hydroxyethyl)piperidin-1-yl)pyrazolo[1,5-a]pyrimidin-7-yl)amino)methyl)pyridin-2-yl)oxy)-15-methyl-3,6,9,12-tetraoxa-15-azanonadec-17-en-19-oyl)piperazin-2-yl)acetonitrile] | – | < 5.60 | – | – | 500 to 1500 | > 7.00 | < 500
5 | C=CC(=O)Nc1cc(Nc2nccc(-c3cn(C)c4ccccc34)n2)c(OC)cc1N(C)CCN(C)CCOCCOCCOCCOCCOc1ccc(CNc2cc(N3CCCC[C@H]3CCO)nc3c(CC)cnn23)cn1 [Compound I-132] | 6.30 to 7.30 | > 7.30 | 6.30 to 7.30 | > 7.30 | < 500 | – | < 500
6 | C=CC(=O)N[C@@H]1CN(c2nc(Nc3cn(CCOCCOCCOCCOCCNS(=O)(=O)c4ccc(Nc5ncc(Br)c(Nc6cccc(F)c6C(N)=O)n5)cc4)nc3OC)c3ncn(C)c3n2)C[C@H]1F [Compound I-138, 2-[[5-bromo-2-[4-[2-[2-[2-[2-[2-[4-[[2-[(3R,4R)-3-fluoro-4-(prop-2-enoylamino)pyrrolidin-1-yl]-9-methyl-purin-6-yl]amino]-3-methoxy-pyrazol-1-yl]ethoxy]ethoxy]ethoxy]ethoxy]ethylsulfamoyl]anilino]pyrimidin-4-yl]amino]-6-fluoro-benzamide] | > 7.30 | 5.60 to 6.30 | > 7.30 | > 7.30 | > 5000 | – | > 5000
7 | C=CC(=O)N[C@@H]1CN(c2nc(Nc3cn(CCOCCOCCOCCOCCOCCOCCNS(=O)(=O)c4ccc(Nc5ncc(Br)c(Nc6cccc(F)c6C(N)=O)n5)cc4)nc3OC)c3ncn(C)c3n2)C[C@H]1F [Compound I-143, 2-[[5-bromo-2-[4-[2-[2-[2-[2-[2-[2-[2-[4-[[2-[(3R,4R)-3-fluoro-4-(prop-2-enoylamino)pyrrolidin-1-yl]-9-methyl-purin-6-yl]amino]-3-methoxy-pyrazol-1-yl]ethoxy]ethoxy]ethoxy]ethoxy]ethoxy]ethoxy]ethylsulfamoyl]anilino]pyrimidin-4-yl]amino]-6-fluoro-benzamide] | > 7.30 | 5.60 to 6.30 | > 7.30 | > 7.30 | > 5000 | – | > 5000
